# In article PMC10700596 (Nature Communications, 2023):
# Several values for one entry are separate records, joined by “and”; a condition that tells them apart may be missing. Identical values can stand only once. Entries after “also recorded” stand apart in the source; their conditions may differ. Like-named read-outs stand apart in the source and are kept apart here.
# How the values were obtained:
# [1] = system: mice; format: in vivo; design: Paw Thickness / Paw thickness AVG 30 / Paw thickness AVG 60 / Paw thickness AVG 120: unit not given here; conditions: for Paw Thickness: duplicate readings; for Paw thickness %BL CARR: used for Figure 3E
# [2] = system: mice; format: in vivo; conditions: for Carrageenan-induced allodynia, mechanical threshold (von Frey): individual animals
# [3] = system: mice; format: in vivo
# Method: For all behavioral tests, the experimenter was always blind to treatment. Animals were habituated for 60 min in Plexiglas cylinders before testing. […] For 10 mg/kg doses, compounds were prepared in 2.5 mg/ml solutions of which 100 µL were administered to mice (average weight 25 g). For 30 mg/kg doses, 7.5 mg/ml solutions were prepared. […] Hindpaw mechanical thresholds were determined with von Frey filaments using the up-down method, 60 min after administration of the EP4R antagonists (i.p. or via oral gavage). For the ambulatory (rotarod) test, mice were first trained on an accelerating rotating rod, 3 times for 5 minutes, before testing with any compound. On the test day, latency to fall from the rod was measured 1 h after injection of the compound. The cutoff was 300 s. Statistical tests were performed with GraphPad Prism 9.0 (GraphPad Software Inc., San Diego).
# [4] = target: EP2R (Homo sapiens, UniProt P43116); test: Radioligand (3H-PGE2) displacement assay at EP2R; format: binding
# Sequence of EP2R (P43116 whole entry): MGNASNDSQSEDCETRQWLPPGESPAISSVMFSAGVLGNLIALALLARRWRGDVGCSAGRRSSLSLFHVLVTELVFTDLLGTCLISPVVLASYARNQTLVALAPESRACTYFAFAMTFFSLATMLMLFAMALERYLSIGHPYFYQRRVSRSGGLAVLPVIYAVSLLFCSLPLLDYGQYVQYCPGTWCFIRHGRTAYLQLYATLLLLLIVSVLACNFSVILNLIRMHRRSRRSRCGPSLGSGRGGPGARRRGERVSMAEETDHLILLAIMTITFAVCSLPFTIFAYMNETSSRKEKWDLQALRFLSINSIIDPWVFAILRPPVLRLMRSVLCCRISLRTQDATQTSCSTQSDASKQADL
# [5] = target: CDK3 (Homo sapiens, UniProt Q00526); test: biochemical; format: binding; conditions: 10000 nM; read-out: Percent Control
# Sequence of CDK3 (Q00526 whole entry): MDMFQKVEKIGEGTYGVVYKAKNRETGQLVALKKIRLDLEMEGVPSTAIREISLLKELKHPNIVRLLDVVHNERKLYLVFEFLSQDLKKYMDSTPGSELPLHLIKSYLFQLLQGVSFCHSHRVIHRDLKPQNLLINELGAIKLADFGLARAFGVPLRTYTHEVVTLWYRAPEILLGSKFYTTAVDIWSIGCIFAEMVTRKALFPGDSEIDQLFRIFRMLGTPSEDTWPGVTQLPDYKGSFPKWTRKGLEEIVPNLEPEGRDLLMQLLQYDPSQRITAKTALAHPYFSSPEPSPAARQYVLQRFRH
# [6] = target: EP3R (Homo sapiens, UniProt P43115); test: Radioligand (3H-PGE2) displacement assay at EP3R; format: binding
# Sequence of EP3R (P43115 whole entry): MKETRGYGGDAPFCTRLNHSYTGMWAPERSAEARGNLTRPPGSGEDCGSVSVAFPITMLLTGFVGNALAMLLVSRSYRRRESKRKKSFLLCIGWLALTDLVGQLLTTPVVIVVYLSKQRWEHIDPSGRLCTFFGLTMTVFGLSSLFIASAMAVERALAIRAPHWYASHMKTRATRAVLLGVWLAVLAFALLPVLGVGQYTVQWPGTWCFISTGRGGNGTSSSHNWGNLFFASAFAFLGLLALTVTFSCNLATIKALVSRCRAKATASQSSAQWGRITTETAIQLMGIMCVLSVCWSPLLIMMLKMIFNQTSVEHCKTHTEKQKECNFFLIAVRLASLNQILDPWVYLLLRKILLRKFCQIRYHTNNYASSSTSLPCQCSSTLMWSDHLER
# [7] = target: wild-type EP4R (Homo sapiens, UniProt P35408); test: cell-based
# Sequence of wild-type EP4R (P35408 whole entry): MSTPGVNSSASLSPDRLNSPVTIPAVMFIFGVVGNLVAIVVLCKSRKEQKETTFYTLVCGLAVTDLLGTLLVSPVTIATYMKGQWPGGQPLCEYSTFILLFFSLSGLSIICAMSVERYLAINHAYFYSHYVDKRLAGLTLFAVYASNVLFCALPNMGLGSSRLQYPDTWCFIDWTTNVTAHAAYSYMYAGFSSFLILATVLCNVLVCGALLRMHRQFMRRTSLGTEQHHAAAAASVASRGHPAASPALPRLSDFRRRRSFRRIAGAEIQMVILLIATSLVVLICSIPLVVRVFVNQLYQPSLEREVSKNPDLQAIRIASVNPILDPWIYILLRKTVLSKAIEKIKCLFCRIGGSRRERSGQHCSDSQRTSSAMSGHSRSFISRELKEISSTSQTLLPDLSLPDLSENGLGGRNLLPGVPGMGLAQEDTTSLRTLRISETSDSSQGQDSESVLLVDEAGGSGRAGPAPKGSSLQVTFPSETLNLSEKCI
# [8] = target: EPHA2 (Homo sapiens, UniProt P29317); test: biochemical; format: binding; conditions: 10000 nM; read-out: Percent Control
# Sequence of EPHA2 (P29317 24-976): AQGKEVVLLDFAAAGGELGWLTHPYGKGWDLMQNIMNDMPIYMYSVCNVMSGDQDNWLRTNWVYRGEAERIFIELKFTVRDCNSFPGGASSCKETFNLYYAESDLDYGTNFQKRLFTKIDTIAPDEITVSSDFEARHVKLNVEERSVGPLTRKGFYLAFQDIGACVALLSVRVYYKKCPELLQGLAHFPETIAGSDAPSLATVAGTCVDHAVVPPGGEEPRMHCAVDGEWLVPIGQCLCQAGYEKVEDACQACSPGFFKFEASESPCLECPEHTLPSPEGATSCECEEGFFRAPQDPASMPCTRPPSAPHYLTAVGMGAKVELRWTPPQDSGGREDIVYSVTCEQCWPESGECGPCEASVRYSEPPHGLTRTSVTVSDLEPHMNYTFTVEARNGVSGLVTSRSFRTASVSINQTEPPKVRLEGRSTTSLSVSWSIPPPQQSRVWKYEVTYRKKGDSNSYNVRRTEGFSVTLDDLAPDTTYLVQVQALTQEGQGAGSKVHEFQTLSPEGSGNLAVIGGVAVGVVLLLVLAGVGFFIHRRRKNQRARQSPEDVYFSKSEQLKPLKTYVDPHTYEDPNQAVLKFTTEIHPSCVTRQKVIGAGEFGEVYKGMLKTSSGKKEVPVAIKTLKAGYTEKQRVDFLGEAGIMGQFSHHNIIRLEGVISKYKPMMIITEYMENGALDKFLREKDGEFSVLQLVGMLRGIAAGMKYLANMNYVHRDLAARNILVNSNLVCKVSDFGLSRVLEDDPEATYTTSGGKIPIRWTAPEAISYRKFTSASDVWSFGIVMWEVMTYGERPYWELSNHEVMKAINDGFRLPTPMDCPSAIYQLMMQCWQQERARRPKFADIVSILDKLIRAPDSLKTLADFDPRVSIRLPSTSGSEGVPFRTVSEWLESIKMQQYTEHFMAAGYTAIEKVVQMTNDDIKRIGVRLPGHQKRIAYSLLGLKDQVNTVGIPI
# [9] = target: T1, Thromboxane A2 (TP) receptor (Homo sapiens, UniProt P21731); test: Functional cAMP production assay, TP receptor; format: cell-based
# T1 sequence (P21731 1-343): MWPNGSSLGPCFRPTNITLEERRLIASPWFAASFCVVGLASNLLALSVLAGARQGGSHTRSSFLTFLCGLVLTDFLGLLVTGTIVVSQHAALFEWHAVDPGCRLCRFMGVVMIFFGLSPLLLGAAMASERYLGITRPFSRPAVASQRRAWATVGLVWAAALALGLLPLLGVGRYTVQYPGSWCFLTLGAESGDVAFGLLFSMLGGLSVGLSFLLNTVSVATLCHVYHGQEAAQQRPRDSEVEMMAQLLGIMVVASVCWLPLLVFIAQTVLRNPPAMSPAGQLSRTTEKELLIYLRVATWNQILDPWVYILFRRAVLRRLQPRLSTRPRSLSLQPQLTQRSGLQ
# [10] = target: BRAF(V600E) (Homo sapiens, UniProt P15056, V600E); test: biochemical; format: binding; conditions: 10000 nM; read-out: Percent Control
# Sequence of BRAF(V600E) (P15056 whole entry V600E): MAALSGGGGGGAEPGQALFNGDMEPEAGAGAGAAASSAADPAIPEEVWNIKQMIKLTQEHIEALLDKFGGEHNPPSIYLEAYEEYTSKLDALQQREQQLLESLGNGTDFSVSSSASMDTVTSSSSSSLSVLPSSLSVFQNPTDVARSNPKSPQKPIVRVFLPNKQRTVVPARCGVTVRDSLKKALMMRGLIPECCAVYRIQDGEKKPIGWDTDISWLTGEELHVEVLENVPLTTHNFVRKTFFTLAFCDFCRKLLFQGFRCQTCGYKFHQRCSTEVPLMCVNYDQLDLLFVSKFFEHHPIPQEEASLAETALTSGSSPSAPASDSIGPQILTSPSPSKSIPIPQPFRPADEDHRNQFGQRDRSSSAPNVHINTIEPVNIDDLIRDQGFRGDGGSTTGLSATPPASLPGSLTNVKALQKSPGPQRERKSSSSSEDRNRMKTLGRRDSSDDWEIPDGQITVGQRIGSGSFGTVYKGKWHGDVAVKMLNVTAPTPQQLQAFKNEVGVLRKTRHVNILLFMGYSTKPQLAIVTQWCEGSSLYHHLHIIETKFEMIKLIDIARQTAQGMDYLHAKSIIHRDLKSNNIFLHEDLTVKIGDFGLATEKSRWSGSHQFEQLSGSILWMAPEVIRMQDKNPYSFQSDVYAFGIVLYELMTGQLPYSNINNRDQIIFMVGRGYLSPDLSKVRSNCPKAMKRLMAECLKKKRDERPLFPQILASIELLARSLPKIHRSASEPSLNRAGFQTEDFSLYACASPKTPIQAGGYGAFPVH
# [11] = target: TGFBR1 (Homo sapiens, UniProt P36897); test: biochemical; format: binding; conditions: 10000 nM; read-out: Percent Control
# Sequence of TGFBR1 (P36897 34-503): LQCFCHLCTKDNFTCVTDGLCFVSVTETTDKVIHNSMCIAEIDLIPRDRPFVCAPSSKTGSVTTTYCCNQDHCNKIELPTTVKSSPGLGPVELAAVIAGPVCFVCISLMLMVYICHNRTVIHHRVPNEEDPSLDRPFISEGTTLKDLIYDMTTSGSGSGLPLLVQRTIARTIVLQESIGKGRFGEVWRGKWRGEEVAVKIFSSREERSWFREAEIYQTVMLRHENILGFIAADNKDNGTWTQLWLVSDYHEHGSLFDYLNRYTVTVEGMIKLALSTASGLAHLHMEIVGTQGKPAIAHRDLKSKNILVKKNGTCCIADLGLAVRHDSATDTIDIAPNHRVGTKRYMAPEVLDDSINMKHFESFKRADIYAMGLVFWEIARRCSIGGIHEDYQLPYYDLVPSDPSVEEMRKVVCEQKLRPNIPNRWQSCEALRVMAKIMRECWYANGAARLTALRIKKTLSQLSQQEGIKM
# [12] = target: T2, COX-2 (Homo sapiens, UniProt P35354); test: COX-2 inhibition (Eurofins item 4186); format: biochemical
# T2 construct: purchased Eurofins item 4186
# T2 sequence (P35354 18-604): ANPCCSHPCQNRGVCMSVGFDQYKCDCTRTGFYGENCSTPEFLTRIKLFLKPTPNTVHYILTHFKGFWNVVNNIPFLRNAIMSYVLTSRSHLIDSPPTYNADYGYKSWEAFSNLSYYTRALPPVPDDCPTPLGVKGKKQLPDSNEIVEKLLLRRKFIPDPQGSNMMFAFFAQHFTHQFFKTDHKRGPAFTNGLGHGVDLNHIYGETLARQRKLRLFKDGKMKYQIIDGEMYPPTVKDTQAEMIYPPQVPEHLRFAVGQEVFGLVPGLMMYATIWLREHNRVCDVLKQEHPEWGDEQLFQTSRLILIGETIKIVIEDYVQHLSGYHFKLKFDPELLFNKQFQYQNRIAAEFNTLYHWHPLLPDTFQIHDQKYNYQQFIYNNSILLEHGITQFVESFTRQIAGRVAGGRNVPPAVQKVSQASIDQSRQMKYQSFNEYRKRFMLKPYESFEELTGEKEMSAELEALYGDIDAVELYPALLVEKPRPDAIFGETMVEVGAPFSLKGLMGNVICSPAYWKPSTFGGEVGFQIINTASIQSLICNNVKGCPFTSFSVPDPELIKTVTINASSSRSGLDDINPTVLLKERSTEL
# Description: . […] This panel includes several adverse drug reaction receptors such as the serotonin receptor 5HT2b, M1 and M2 muscarinic receptors and adrenergic receptors. […]. page 7:
# Supplementary Figure 7: Non-GPCR off-target screening for 74. a)-e) Dose-response curves of 74 at […]
# proliferator-activated receptor gamma (PPARγ, Eurofins item G124). Data in a)-e) and g)-i) represent two technical replicates. Source data are provided as a Source Data file.
# (1 picture or pasted object on this page, not shown here)
# [13] = target: JNK3 (Homo sapiens, UniProt P53779); test: biochemical; format: binding; conditions: 10000 nM; read-out: Percent Control
# Sequence of JNK3 (P53779 whole entry): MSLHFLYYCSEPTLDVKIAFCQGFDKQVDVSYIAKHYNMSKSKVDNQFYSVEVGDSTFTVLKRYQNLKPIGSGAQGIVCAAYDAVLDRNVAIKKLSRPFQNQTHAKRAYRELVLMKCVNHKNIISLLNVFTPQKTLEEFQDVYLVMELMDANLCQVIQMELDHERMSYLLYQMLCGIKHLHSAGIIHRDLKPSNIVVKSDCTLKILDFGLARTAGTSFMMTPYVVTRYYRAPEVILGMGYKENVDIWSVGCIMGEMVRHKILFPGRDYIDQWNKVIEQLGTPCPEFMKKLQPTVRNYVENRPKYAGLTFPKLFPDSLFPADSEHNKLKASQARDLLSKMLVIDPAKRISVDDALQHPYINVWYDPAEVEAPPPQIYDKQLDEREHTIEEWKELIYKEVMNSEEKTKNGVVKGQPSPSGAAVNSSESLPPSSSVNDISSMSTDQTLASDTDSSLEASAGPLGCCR
# [14] = target: ABL1(T315I)-phosphorylated (Homo sapiens, UniProt P00519, T315I); test: biochemical; format: binding; conditions: 10000 nM; read-out: Percent Control
# [15] = 30 min, Carrageenan 30 µg, Group Average of 5 mice
# [16] = 30 min, Carrageenan 30 µg, individual mouse
# [17] = 60 min, Carrageenan 30 µg, Group Average of 5 mice
# [18] = 60 min, Carrageenan 30 µg, individual mouse
# [19] = 120 min, Carrageenan 30 µg, Group Average of 5 mice
# [20] = 120 min, Carrageenan 30 µg, individual mouse
# [21] = 180 min, Carrageenan 30 µg, Group Average of 5 mice
# [22] = 180 min, Carrageenan 30 µg, individual mouse
# [23] = 24 hours, Carrageenan 30 µg, Group Average of 5 mice
# [24] = 24 hours, Carrageenan 30 µg, individual mouse
smiles,measurement,setting,value
"O=C([O-])C1CCC2(CC1)CC(Nc1ncnc3[nH]c4c(F)cccc4c13)C2.[Na+] (stereo not shown) [Compound 77, [Na+].[O-]C(=O)C1CCC2(CC(C2)NC=3N=CN=C4NC=5C(F)=CC=CC5C34)CC1]",effect on carrageenan-induced paw edema,"[1]; 30 mg/kg i.p., one day after carrageenan",significantly reduced
same,"Paw thickness %BL CARR, Group Average",[1]; [15],92.2% and 96.7%
same,"Paw thickness %Baseline, Group Average",[1]; [15],118.7% and 118.1%
same,"Paw thickness AVG 30, Group Average",[1]; [15],2.0
same,Paw thickness %Baseline,[1]; [16],122.7% and 124.6% and 120.5% and 111.5% and 114.1% and 116.5% and 122.2% and 107.4% and 119.7% and 124.9%
same,Paw thickness AVG 30,[1]; [16],2.0 and 2.2 and 2.1 and 1.9 and 1.8
same,Paw Thickness,[1]; [16],1.9 and 2.04 and 2.2 and 2.1 and 2.14 and 2.06 and 1.98 and 2.08 and 1.95 and 1.77 and 1.88 and 2 and 2.13 and 2.02
same,Paw thickness %BL CARR,[1]; [16],89.5% and 101.4% and 91.7% and 92.1% and 86.4% and 102.3% and 101.6% and 84.9% and 96.7% and 98.1%
same,"Paw thickness %BL CARR, Group Average",[1]; [17],91.8% and 95.5%
same,"Paw thickness %Baseline, Group Average",[1]; [17],118.2% and 116.8%
same,"Paw thickness AVG 60, Group Average",[1]; [17],2.0
same,Paw thickness %Baseline,[1]; [18],124.6% and 118.8% and 118.2% and 112.4% and 117.1% and 109.8% and 115.0% and 114.7% and 118.3% and 126.1%
same,Paw thickness AVG 60,[1]; [18],2.0 and 2.1 and 1.9
same,Paw Thickness,[1]; [18],2.1 and 1.9 and 2 and 2.02 and 1.97 and 1.98 and 2.05 and 2.09 and 2.2
same,Paw thickness %BL CARR,[1]; [18],90.9% and 96.7% and 89.9% and 92.8% and 88.6% and 96.4% and 95.6% and 90.7% and 99.1%
same,"Paw thickness %BL CARR, Group Average",[1]; [19],89.1% and 94.8%
same,"Paw thickness %Baseline, Group Average",[1]; [19],114.9% and 115.9%
same,"Paw thickness AVG 120, Group Average",[1]; [19],2.0
same,Paw thickness %Baseline,[1]; [20],126.2% and 111.6% and 112.4% and 111.0% and 113.2% and 111.3% and 115.8% and 115.9% and 114.2% and 122.2%
same,Paw thickness AVG 120,[1]; [20],2.0 and 1.9 and 2.1
same,Paw Thickness,[1]; [20],2 and 2.05 and 1.9 and 1.95 and 2.04 and 2.1 and 2.07 and 1.91 and 2.03 and 1.94 and 1.97
same,Paw thickness %BL CARR,[1]; [20],92.0% and 90.8% and 85.5% and 91.6% and 85.7% and 97.7% and 96.3% and 92.3% and 96.0%
same,"Paw thickness %BL CARR, Group Average",[1]; [21],89.9% and 92.7%
same,"Paw thickness %Baseline, Group Average",[1]; [21],115.8% and 113.3%
same,"Paw thickness AVG 180, Group Average",[1]; [21],2.0
same,Paw thickness %Baseline,[1]; [22],125.5% and 114.5% and 111.0% and 112.4% and 115.6% and 112.7% and 106.9% and 111.8% and 115.9% and 118.9%
same,Paw thickness AVG 180,[1]; [22],2.0 and 1.9
same,Paw Thickness,[1]; [22],2.03 and 2 and 1.95 and 1.9 and 2.09 and 2.02 and 1.91 and 1.99 and 1.96
same,Paw thickness %BL CARR,[1]; [22],91.6% and 93.2% and 84.4% and 92.8% and 87.5% and 99.0% and 88.9% and 88.4% and 93.7% and 93.4%
same,"Paw thickness %BL CARR, Group Average",[1]; [23],85.7% and 94.0%
same,"Paw thickness %Baseline, Group Average",[1]; [23],110.4% and 114.8%
same,"Paw thickness AVG 24h, Group Average",[1]; [23],1.9 and 2.0
same,Paw thickness %Baseline,[1]; [24],118.4% and 111.0% and 109.2% and 105.9% and 107.4% and 115.6% and 114.7% and 114.5% and 120.1%
same,Paw thickness AVG 24h,[1]; [24],1.9 and 1.8 and 2.0
same,Paw Thickness,[1]; [24],1.9 (2×) and 1.83 and 2 and 1.92 and 1.87 and 1.84 and 1.8 and 1.85 and 1.93 and 1.95 (2×)
same,Paw thickness %BL CARR,[1]; [24],86.4% and 90.3% and 83.1% and 87.4% and 81.3% and 101.5% and 90.8% and 90.7% and 92.5% and 94.3%
same,"Carrageenan-induced allodynia, mechanical threshold (von Frey)",[2]; 10 mg/kg IP,27 and 58.1 and 18.1 and 18.3 and 32 and 31.3 and 24.3 and 20.9 and 32.5 and 40
same,effect on carrageenan-mediated mechanical allodynia,[2]; 10 mg/kg i.p.,equal anti-allodynic effects; also recorded: equally reduce carrageenan-mediated mechanical allodynia
same,"Carrageenan-induced allodynia, mechanical threshold (von Frey)",[2]; 30 mg/kg IP,30.3 and 39.4 and 44.8 and 39.1 and 40.4
same,"Carrageenan-induced allodynia, mechanical threshold (von Frey)",[2]; 30 mg/kg PO,45.8 and 24.2 and 57.3 and 32.3 and 42.9 and 24.5 and 10.4 and 51.4 and 11.4 and 35.4
same,effect on carrageenan-mediated mechanical allodynia,[2]; 30 mg/kg i.p. or p.o.,significant anti-allodynic properties
same,Rotarod latency to fall,"[3]; 30 mg/kg IP, 1 h after injection, cutoff 300 s, individual animals",300 s and 281 s and 295 s and 269 s
same,motor impairment in the rotarod test,"[3]; mouse, in vivo",did not induce motor impairment
same,"Uninjured mice, individual animal values (Supplementary Figure 10A)","[3]; uninjured mice, IP 30 mg/kg, single animals, 30 mg/kg",116 and 71.5 and 93.5 and 86.1 and 110.4
"O=C(O)C1CCC2(CC1)CC(Nc1ncnc3[nH]c4c(F)cccc4c13)C2 (stereo not shown) [Compound 74, OC(=O)C1CCC2(CC(C2)NC=3N=CN=C4NC=5C(F)=CC=CC5C34)CC1]",binding to EP2 receptor,[4],no binding
same,remaining activity at 10 µM,[5],100%
same,binding to EP3 receptor,[6],no binding
same,IC50,[7],0.0789 µM
same,mode of antagonism by Schild analysis,[7],competitive antagonism
same,Ki,"[7]; calculated using the Cheng Prusoff equation, read-out: Arrestin-BRET Ki*",0.0156 µM
same,remaining activity at 10 µM,[8],83%
same,off-target activity at thromboxane A2 receptor,[9],no off-target activities
same,remaining activity at 10 µM,[10],84%
same,remaining activity at 10 µM,[11],54%
same,inhibitory / off-target activity at COX-2,[12]; 3 µM,no off-target activity; also recorded: no inhibitory activity
same,%Inhibition of Control Values,"[12]; COX-2, 3 µM, technical replicates",-20.9% and -2.6%
same,remaining activity at 10 µM,[13],40%
same,remaining activity at 10 µM,[14],82%
